Patent US20170304178A1, “Peptides and Their Use in the Treatment of Skin” (AVON PRODUCTS, INC., priority 2014, published 2017)
Marks after values point to notes of the source that are not given here. Residues, ends and D or L forms follow the SMILES beside them.

Columns and labels:
[1] = system: human dermal fibroblast cells; assay: Secreted hyaluronic acid (HA) in media of human dermal fibroblasts (HA Elisa kit); format: cell-based; details: 48 h, percent change relative to vehicle control
Experimental: (§1) Human dermal fibroblast cells were grown in a 96 well plate in DMEM media (available from Corning, N.Y.) supplemented with 10% Fetal Bovine Serum (FBS) and L-glutamine (0.07×10^5 cells/plate). After reaching about 75% confluence, cells were transferred into DMEM media without FBS and incubated for 4-6 hours. Next, cells were treated with peptides of Formulas I-V at 0.00001%, 0.0001%, 0.001% final concentration in DMEM media without FBS for 48 h. After treatment the media were collected, and cell viability was measured using MTT. The amount of secreted collagen was tested in the media using HTRF human pro-collagen I kit (Cisbio Inc, Bedford, Mass.). The amount of secreted Hyaluronic Acid (HA) was tested in the media using HA Elisa kit (available from Corgenix, Broomfield, Colo.).
(§2) Results are summarized in Table 1 below as percent change of pro-collagen I and HA production relative to vehicle control: […]

[2] = system: human dermal fibroblast cells; assay: Secreted pro-collagen I in media of human dermal fibroblasts (HTRF human pro-collagen I kit); format: cell-based; details: 48 h, percent change relative to vehicle control
Experimental: as §1, §2

Compound | Increase in HA Production ([1]; peptide concentration 0.0001%) | Increase in HA Production ([1]; peptide concentration 0.001%) | Increase in Pro-Collagen I Production ([2]; peptide concentration 0.001%) | Increase in Pro-Collagen I Production ([2]; peptide concentration 0.00001%)
CSCCC(N)C(=O)NC(C(=O)NC(C(=O)O)C(C)C)C(C)C (stereo not drawn) [MVV (SEQ ID NO: 2), Met-Val-Val] (H-Met-Val-Val-OH; configuration not given here) | +20-50% | – | – | –
CCC(C)C(N)C(=O)NC(Cc1ccccc1)C(=O)NCC(=O)NCC(=O)NC(C(=O)NC(C(=O)NC(Cc1ccc(O)cc1)C(=O)NC(CCCNC(=N)N)C(=O)NC(CO)C(=O)O)C(C)C)C(C)O (stereo not drawn) [IFGGTVYRS (SEQ ID NO: 4), Ile-Phe-Gly-Gly-Thr-Val-Tyr-Arg-Ser] (H-IFGGTVYRS-OH; configuration not given here) | – | +50-90% | +10-30% | –
CC(NC(=O)CNC(=O)C(CC(=O)O)NC(=O)C(CCCCN)NC(=O)C(C)NC(=O)C(N)C(C)O)C(=O)NC(C(=O)O)C1CCCN1 (stereo not drawn) [TAKDGAP (SEQ ID NO: 3), Thr-Ala-Lys-Asp-Gly-Ala-Pro] | – | +50-90% | – | +10-30%**
CCC(C)C(NC(=O)C(CCCCN)NC(=O)C(NC(=O)C(NC(=O)C(N)CCCNC(=N)N)C(C)O)C1CCCN1)C(=O)NC(CO)C(=O)NC(CCCCN)C(=O)NC(C(=O)NC(C(=O)NC(CCCCN)C(=O)NC(Cc1ccccc1)C(=O)NC(CCC(=O)O)C(=O)NC(CC(C)C)C(=O)NC(CO)C(=O)NCC(=O)O)C(C)CC)C1CCCN1 (stereo not drawn) [RTPKISKPIKFELSG (SEQ ID NO: 5), Arg-Thr-Pro-Lys-Ile-Ser-Lys-Pro-Ile-Lys-Phe-Glu-Leu-Ser-Gly] | – | +20-50% | – | –
CC(C)CC(N)C(=O)NC(CCCNC(=N)N)C(=O)NC(CC(C)C)C(=O)NC(CCCCN)C(=O)O (stereo not drawn) [LRLK (SEQ ID NO: 1), Leu-Arg-Leu-Lys] (H-LRLK-OH; configuration not given here) | – | +20-50% | – | –
